In patent US4022832A, “2-Aminoacetamido-α-phenylbenzylideneaminoalkanol derivatives and process for the preparation thereof” (Sankyo Company Limited, priority 1975, dated 1977):

How the values were obtained:
Assay type in all cases: in vivo
mice [1] = assay: Potentiation of anesthesia (thiopental); details: Mus musculus, po, P.O., 1 hour before 30mg/kg thiopental i.v., dose prolonging loss of righting reflex twice that of thiopental only, Litchfield and Wilcoxon
Procedure: (3) Potentiation of anesthesia
One hour after oral administration of the test compound, 30mg/kg of thiopental is intravenously injected, and the dose is determined which prolongs the duration of loss of the righting reflex twice that of the group administered only with thiopental.
(§1) (4) Calculation of ED50 values
(§2) The values are calculated according to the method of Litchfield and Wilcoxon [J. Pharmcol. Exp. Therap., 96, 99 (1949)].

mice [2] = assay: Anti-electroshock convulsant effect; details: Mus musculus, po, P.O., 1 hour before electroshock (1000V, 12.5mA, 0.2sec.) through both corneas, Litchfield and Wilcoxon
Procedure: (2) Anti-electroshock convulsant effect
One hour after oral administration of the test compound, an electroshock (1000V, 12.5mA, 0.2sec.) is applied through both corneas and anti-convulsant activity of the compound is observed.
as §1, §2

mice [3] = assay: Anti-bemegride convulsant effect; details: Mus musculus, po, P.O., 1 hour before 30mg/kg bemegride s.c., observed for 30 minutes, Litchfield and Wilcoxon
Procedure: (1) Anti-bemegride convulsant effect
One hour after oral administration of the test compound, 30mg/kg of bemegride is subcutaneously injected and the anti-convulsant activity of the compound is observed for 30 minutes.
as §1, §2

Structure (SMILES) | ED50 (mice [1]) | ED50 (mice [2]) | ED50 (mice [3])
CNC1=Nc2ccc(Cl)cc2C(c2ccccc2)=[N+]([O-])C1 [Chlordiazepoxide] | 12 mg/kg | 27 mg/kg | 2.7 mg/kg
NCC(=O)Nc1ccc(Br)cc1C(=NCCO)c1ccccc1F [2-{[2-Aminoacetamido-5-bromo-α -(2-fluorophenyl)benzylidene]amino}ethanol] | 2.9 mg/kg | 8 mg/kg | 0.31 mg/kg
